Legend:
knee joints of aged mice = experiment: Systemic i.p. treatment of aged mice: knee joint Safranin O histology and OARSI scoring; assay type: in vivo, mice C57BL/6; conditions: 5 mg/kg i.p. daily for 1 month
Description: Mice handling. All experiments and protocols were performed in accordance with the institutional guidelines of Stanford University and Administrative Panel on Laboratory Animal Care (APLAC). Aged (24-28 mo.) mice C57BL/6 were obtained from the US National Institute on Aging (NIA) aged colony.
(§1) Histology on mouse joints and human cartilage explants. Mouse joints were fixed in 4% paraformaldehyde overnight, dehydrated in ethanol and embedded in paraffin. Sagittal Sections (5 μm) of the mouse joints were cut by the Histoserv, Inc (Germantown, MD). Cartilage histology was performed by Safranin O (Saf O) staining as previously reported (Smeriglio et al., 2020, Sci Transi. Med. 12:eaax2332). Joints were assessed through blinded grading with the OARSI scoring system. Briefly, sections of mouse joints were stained with Safranin O, and cartilage degeneration was evaluated by assigning numbers 0 to 4 for increasing depth of cartilage degeneration (OARSI scoring system). For the summit scores, five regions were summed.
SW was previously extensively characterized as a specific inhibitor of 15-PGDH in vitro (ki of 0.1 nM).

[1] = test system: OA knee joints of adult mice; experiment: Tibia loading (ACL rupture) post-traumatic OA in adult mice, intra-articular injections: Safranin O histology and OARSI scoring; assay type: in vivo, mice C57BL/6; conditions: tibial compression OA, intra-articular twice a week for 4 weeks
Source text: (§2) Tibia loading to induce osteoarthritis in young mice. Briefly, mice were anesthetized using 2.5% isoflurane inhalation under 4 L/min of oxygen. The right tibia was positioned vertically, with the ankle upward and the knee downward in deep flexion between loading cups. Using a material testing machine (Instron ElectroPulse E1000), axial compression was applied through the knee via the upper cup, while the lower cup was fixed and linked to the load cell. The ACL tear was confirmed by the release of compressive force during compression. Mice were allowed to progress for 6 weeks after loading (n=8 for each group). Contralateral left limb served as a non-loaded control. Mice blood serum was collected via retro-orbital bleeding to do multiplex autoantibody assay. Mice were sacrificed by cervical dislocation and knee joint were collected for assessment.
as §1
To test whether 15-PGDH inhibition would be protective in younger, adult mice upon induction of OA, OA was induced in young, adult mice (3 months old) by application of tibial compression on the mouse knee leading to anterior crucial ligament (ACL) rupture. This injury model recapitulates ACL injury frequently observed in human patients. After 1 week of injury, local intra-articular injections of vehicle or SW were given twice a week for 4 weeks. […]

[2] = test system: inflammatory cytokine levels; experiment: Luminex cytokine panel on serum of OA mice given intra-articular injections; assay type: in vivo; conditions: vs vehicle
Source text: as §2
(§3) Luminex Assay. This assay was performed at the Human Immune Monitoring Center at Stanford University. Human 76-plex or mouse 48-plex kits (eBioscience/Affymetrix) were used according to the manufacturer's recommendations. Briefly, antibody beads and samples were added to a 96-well plate and incubated at room temperature for 2 hours, followed by overnight incubation at 4° C. with shaking at 500 to 600 rpm. Plates were then washed in a w ash buffer, and biotinylated detection antibody was added for 2 hours at room temperature with shaking. Plate was washed, and streptavidin-phycoerythrin was added After 40 min incubation and washes, reading buffer was added to the wells Plates were read using a Luminex 200 instrument with a lower bound of 50 beads per sample per cytokine. Custom assay control beads were added to all wells. The raw MFI read-outs of all samples were used and analyzed by GraphPad prism.
To test whether 15-PGDH inhibition would be protective in younger, adult mice upon induction of OA, OA was induced in young, adult mice (3 months old) by application of tibial compression on the mouse knee leading to anterior crucial ligament (ACL) rupture. This injury model recapitulates ACL injury frequently observed in human patients. After 1 week of injury, local intra-articular injections of vehicle or SW were given twice a week for 4 weeks. […] Upon blinded scoring of mice knee joints based on the OARSI scoring system, it was observed that the maximal damage score. […] To assess the inflammation in these mice, serum was utilized from vehicle or SW injected mice to test for a 39-plex Luminex cytokine panel. […] These observations corroborated that local 15-PGDH inhibition by SW treatment not only enhances cartilage regeneration but also decreases the inflammation in osteoarthritic mice.

cartilage from aged mice = experiment: RNA-seq, differential gene expression and Ingenuity Pathway Analysis of cartilage from aged mice treated systemically; assay type: in vivo
Description: Mice handling. […] Aged (24-28 mo.) mice C57BL/6 were obtained from the US National Institute on Aging (NIA) aged colony.
RNA extraction and library preparation from mouse joints for RNA seq. Knee joint microdissection was performed under a stereoscope to collect cartilage tissue by carefully eliminating any tendons, synovial membrane and meniscal residue and then shaving the cartilage tissue from the underlying bone (Smeriglio et al., 2020, Sci Transl. Med. 12:eaax2332). The isolated cartilage tissue was kept in RNA later (Ambion) and stored at −80° C. for later use. Cartilage tissue was homogenized in Trizol using a bullet blender (Next Advance), followed by RNA extraction and purification using RNeasy micro-kit (Qiagen). cDNA libraries were constructed from 10 ng total RNA using SMARTer stranded Total RNA-Seq kit v3 (Takara Bio). Libraries were sequenced to 25-30×10^6 150-bp paired end reads per sample on an Illumina NovaSeq platform (Novogene, CA).
Differential Gene Expression Analysis. For the RNA-seq analysis, pseudo aligner Salmon was used to quantify the expression of transcripts. Sequences were also aligned against the Mus musculus genome (mm9) using the STAR aligner. A counts matrix containing the number of counts for each gene and each sample was obtained. This matrix was analyzed by DESeq2 to calculate statistical analysis of significance of genes between samples. […] Functional analysis of differentially expressed genes was analyzed using Ingenuity Pathway Analysis (IPA) and DAVID bioinformatic tools.
To identify the downstream molecular pathways through which 15-PGDH may exert its effect on aged cartilage, transcriptomic analysis of vehicle and SW treated cartilage from aged mice (24 mo) was performed and compared to cartilage from young adult mice (3 mo) through RNA-seq.

[3] = test system: chondrocytes in articular cartilage; experiment: Transmission electron microscopy of chondrocytes in articular cartilage, mitochondria per cell; assay type: in vivo, mice
Description: Transmission electron microscopy (TEM). Knee joints were fixed in Karnovsky's fixative composed of 2% Glutaraldehyde (EMS Cat #16000) and 4% paraformaldehyde (EMS Cat #15700) in 0.1M Sodium Cacodylate (EMS Cat #12300) pH 7.4 for 4 hours at 4° C. Joints were washed with cold PBS 3× and then decalcified in 14% EDTA solution in PBS for 3 days at 4° C. Samples were washed with PBS and placed in cold/aqueous 1% osmium tetroxide (EMS Cat #19100) on a rotator and allowed to warm to room temperature (RT) for 1 hr. Samples were washed 3× with ultrafiltered water followed by staining in 1% uranyl acetate at RT for 2 hours. Samples were then dehydrated in a series of ethanol washes for 30 minutes each at RT beginning at 50%, 70% and finally moved to 4° C. overnight. They were placed in cold 95% EtOH and allowed to warm to RT, changed to 100% 2×, then Propylene Oxide (PO) for 15 min. Samples were infiltrated with EMbed-812 resin (EMS Cat #14120) mixed 1:2, 1:1, and 2:1 with PO for 2 hrs each with leaving samples in 2:1 resin to PO overnight rotating at RT in the hood. The samples were then placed into EMbed-812 for 2 to 4 hours then placed into molds w/labels and fresh resin, orientated and placed into 65° C. oven overnight. […]

[4] = test system: human OA cartilage explants; experiment: Human OA cartilage explants: Safranin O staining; assay type: cell-based; conditions: SW 10 uM, 1 week, all zones, especially middle and deep zone
Source text: (§4) Human cartilage tissue collection and treatment. Human cartilage samples were harvested from the surgical knee tissue discards of patients (n>5, age ranging from 55-75 years) undergoing total knee arthroplasty according to approved human subjects institutional review board protocols at Stanford University. Informed, written consent was given by the patients prior to the study. Cylindrical explants (4 mm diameter, 2-4 mm thickness) were extracted from the cartilage samples using standard biopsy punches (Integra, NJ. USA). Cartilage explants were cultured in DMEM-F12 medium supplemented with 10% fetal bovine serum (FBS), 25 μg mL^−1 ascorbic acid, 1× glutamine, and 1× antibiotic-antimycotic solution prior to experiments. To assess the effect of 15-PGDH inhibition, explants were treated with Vehicle (DMSO) or SW (10 uM) for 1 week prior to the assessment. Fresh media was added to the explants every other day.
After 1 week of treatment with SW, explants were fixed in 4% paraformaldehyde, washed with PBS, and cryopreserved in 30% sucrose solution overnight. […] Explants from at least five different patient donors and multiple (>5) sections were used for quantitative analysis.
(§5) Next, the effects of 15-PGDH inhibition in human OA cartilage were tested. […] Sulphated glycosaminoglycans (sGAG) were also independently quantified through measurements with the DMMB dye. […]

[5] = test system: human OA cartilage explants; experiment: Human OA cartilage explants: DMMB assay for sGAG; assay type: cell-based; conditions: SW 10 uM, 7 days, vs vehicle
Source text: Human cartilage tissue collection and treatment. Human cartilage samples were harvested from the surgical knee tissue discards of patients (n>5, age ranging from 55-75 years) undergoing total knee arthroplasty according to approved human subjects institutional review board protocols at Stanford University. Informed, written consent was given by the patients prior to the study. Cylindrical explants (4 mm diameter, 2-4 mm thickness) were extracted from the cartilage samples using standard biopsy punches (Integra, NJ. USA). […]
1,9-dimethylmethylene Blue (DMMB) and Pico-green Assays. […] Briefly, 20 μL sample was mixed with 200 μL DMMB solution (16 mg DMMB dye dissolved in an aqueous solution of 0.03 m NaCl, 40 mm glycine, 9.5% 0.1 m acetic acid, pH 3.0) and absorbance was measured at 525 nm immediately. […] The DNA content in OA explants was measured by Pico-green assay (Quant-iT Pico-green dsDNA Assay Kit, Invitrogen) as per manufacturer's instructions using the same papain digest supernatant of the OA explants. Quantified sulfated GAG content in OA cartilage explants was normalized to the weight of corresponding explants and the DNA content.
as §5

[6] = test system: human OA cartilage explants; experiment: Human OA cartilage explants: Ki67 immunostaining; assay type: cell-based
Source text: as §4
Cell cycle marker-Ki67 immunostaining. Human OA explants treated with vehicle and SW were fixed and embedded in OCT as described in previous section, 10 μm sections on poly-1-lysine-coated glass slides were obtained using a cryostat. Immunostaining was performed using a standard protocol. […]
as §5

[7] = test system: human OA cartilage explants; experiment: Human OA cartilage explants: Luminex cytokine panel on culture medium; assay type: cell-based; conditions: culture medium (secretome) of SW treated explants vs vehicle
Source text: as §4, §3, §5

PGE2 levels = conditions: in vivo, bone marrow, colon, lung and liver, cited from earlier work
15-PGDH = 15-PGDH (Mus musculus, UniProt Q8VCC1); conditions: aged muscles, one month of daily intraperitoneal treatment, cited from earlier work
[8] = SW treated aged cartilage, almost to the levels of young cartilage
[9] = aged cartilage, SW vs vehicle, among 301 DEGs

Sequence of 15-PGDH (Q8VCC1 whole entry): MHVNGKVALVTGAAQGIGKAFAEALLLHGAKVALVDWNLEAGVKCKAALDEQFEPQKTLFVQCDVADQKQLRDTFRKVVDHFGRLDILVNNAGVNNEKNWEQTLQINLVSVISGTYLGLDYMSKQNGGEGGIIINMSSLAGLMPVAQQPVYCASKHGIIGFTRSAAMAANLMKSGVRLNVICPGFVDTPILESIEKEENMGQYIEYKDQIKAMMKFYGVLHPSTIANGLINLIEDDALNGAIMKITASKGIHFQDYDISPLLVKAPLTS

**Q.** What does the source list for `CCCC[S+]([O-])c1sc2nc(-c3cccs3)cc(-c3ccccc3)c2c1N` (stereo not shown) [SW033291, 2-(butylsulfinyl)-4-phenyl-6-(thiophen-2-yl)thieno[2,3-b]pyridin-3-amine]?
**A.** cartilage structure (safranin O staining of knee joints) (knee joints of aged mice): improved cartilage structure with increased thickness, GAG staining and smoother cartilage surface; OARSI Maximum score (knee joints of aged mice; vs control): significantly decreased; OARSI Summit score (knee joints of aged mice; vs control): significantly decreased; GAG staining and cartilage degradation (Safranin O) ([1]; 3-month-old mice, 6 weeks): higher GAG staining and reduced cartilage degradation; OARSI Maximum score ([1]; vs vehicle): significantly decreased; OARSI Summit score ([1]; vs vehicle): significantly decreased; CCL4 level [2]: significant downregulation; CCL7 level [2]: significant downregulation; CXCL10 level [2]: significant downregulation; IL2 level [2]: significant downregulation; IL27 level [2]: significant downregulation; VEGF level [2]: significant downregulation; inflammatory cytokine levels [2]: overall reduction; genes involved in mitochondrial function and metabolism (IPA) (cartilage from aged mice; SW treated aged cartilage): significant upregulation; COX5a expression (cartilage from aged mice; [8]): significantly upregulated; Ndufa9 expression (cartilage from aged mice; [8]): significantly upregulated; number of downregulated differentially expressed genes (cartilage from aged mice; [9]): 154; number of upregulated differentially expressed genes (cartilage from aged mice; [9]): 147; number of mitochondria per cell (TEM images) ([3]; aged cartilage, SW treated vs vehicle treated): significant increase; mitochondria per cell, quantification with Image J ([3]; aged chondrocytes, SW treatment, compared with young cartilage): restoring the mitochondria number in aged chondrocytes to the level of young cartilage; GAG staining (Safranin O) [4]: increase in GAG staining; GAG content (sGAG, DMMB dye) [5]: significantly increased; Ki67 intensity distribution ([6]; SW vs vehicle treated cells): increased Ki67 expression; Ki67 positive cells ([6]; SW vs vehicle treated explants): increase in Ki67 positive cells; CCL5 level [7]: significant reduction; GMCSF level [7]: significant reduction; IL6 level [7]: significant reduction; increase of PGE2 levels (PGE2 levels): 2 fold; increase of PGD2 levels (PGE2 levels; compared with PGE2 increase): to a lesser extent; levels of PGE2 and PGD2 (15-PGDH; LC-MS/MS): concomitant increase; 15-PGDH specific activity (15-PGDH): significantly reduced

Reference: patent US20240100027A1, “INHIBITION OF PROSTAGLANDIN DEGRADING ENZYME 15-PGDH TO IMPROVE JOINT STRUCTURE AND FUNCTION” (The Board of Trustees of the Leland Stanford Junior …, priority 2020, published 2024)
